Assays:
[1] = molecular target: T1, Peroxisome proliferator-activated receptor delta (Homo sapiens, UniProt Q03181); assay: Agonist activity at human PPARdelta; assay type: functional
T1 sequence (Q03181 whole entry): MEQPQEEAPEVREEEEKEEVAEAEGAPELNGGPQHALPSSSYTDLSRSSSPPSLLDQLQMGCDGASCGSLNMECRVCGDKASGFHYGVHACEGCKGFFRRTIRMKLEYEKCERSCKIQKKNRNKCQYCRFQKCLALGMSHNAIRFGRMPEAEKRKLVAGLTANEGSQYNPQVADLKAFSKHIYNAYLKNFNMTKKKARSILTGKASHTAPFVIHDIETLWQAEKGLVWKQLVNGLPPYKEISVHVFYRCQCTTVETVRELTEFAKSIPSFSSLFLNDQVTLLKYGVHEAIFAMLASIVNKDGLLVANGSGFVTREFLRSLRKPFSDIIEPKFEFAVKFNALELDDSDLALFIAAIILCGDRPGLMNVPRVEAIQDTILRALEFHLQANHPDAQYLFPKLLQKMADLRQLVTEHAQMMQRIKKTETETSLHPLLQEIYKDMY

[2] = molecular target: T2, Peroxisome proliferator-activated receptor gamma (Homo sapiens, UniProt P37231); assay: Activity at PPARgamma
T2 sequence (P37231 whole entry): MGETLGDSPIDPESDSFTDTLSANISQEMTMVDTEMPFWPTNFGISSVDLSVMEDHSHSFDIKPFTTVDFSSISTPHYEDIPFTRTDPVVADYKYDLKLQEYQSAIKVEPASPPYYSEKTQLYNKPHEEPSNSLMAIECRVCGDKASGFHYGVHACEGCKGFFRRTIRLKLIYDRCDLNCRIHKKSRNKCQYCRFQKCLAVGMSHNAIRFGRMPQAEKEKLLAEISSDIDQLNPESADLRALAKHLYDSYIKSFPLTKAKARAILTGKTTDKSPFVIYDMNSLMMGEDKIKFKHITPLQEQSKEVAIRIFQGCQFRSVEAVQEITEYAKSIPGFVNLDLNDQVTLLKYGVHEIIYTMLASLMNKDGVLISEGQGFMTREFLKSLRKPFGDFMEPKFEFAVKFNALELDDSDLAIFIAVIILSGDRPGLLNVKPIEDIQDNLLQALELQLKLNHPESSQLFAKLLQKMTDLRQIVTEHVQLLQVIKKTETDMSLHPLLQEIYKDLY

[3] = molecular target: T3, Peroxisome proliferator-activated receptor alpha (Homo sapiens, UniProt Q07869); assay: Activity at PPARalpha
T3 sequence (Q07869 whole entry): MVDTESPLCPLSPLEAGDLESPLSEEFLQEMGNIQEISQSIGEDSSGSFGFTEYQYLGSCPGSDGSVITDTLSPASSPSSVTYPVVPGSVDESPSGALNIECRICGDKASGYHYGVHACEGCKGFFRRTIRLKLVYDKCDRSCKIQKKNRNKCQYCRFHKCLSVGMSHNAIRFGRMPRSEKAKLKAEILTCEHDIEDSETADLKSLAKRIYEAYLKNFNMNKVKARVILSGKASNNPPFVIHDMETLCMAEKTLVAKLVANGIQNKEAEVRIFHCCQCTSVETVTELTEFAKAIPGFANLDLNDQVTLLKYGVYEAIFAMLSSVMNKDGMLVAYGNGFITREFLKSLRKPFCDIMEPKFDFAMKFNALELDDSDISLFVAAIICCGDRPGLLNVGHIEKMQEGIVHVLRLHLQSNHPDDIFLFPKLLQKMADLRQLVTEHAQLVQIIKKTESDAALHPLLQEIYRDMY

SMILES	EC50 [1]	EC50 [2]	EC50 [3]
C=C(COc1ccccc1)CSc1ccc(OCC(=O)O)c(C)c1		> 1 µM	> 1 µM
C=C(COc1ccc(Cl)c(Cl)c1)CSc1ccc(OCC(=O)O)c(C)c1	0.0498 µM	> 1 µM	> 1 µM
C=C(COc1ccc(OC)cc1)CSc1ccc(OCC(=O)O)c(C)c1		> 1 µM	> 1 µM
C=C(CCc1ccc(C(F)(F)F)cc1)CSc1ccc(OCC(=O)O)c(C)c1		> 1 µM	> 1 µM
C=C(COc1ccc(C(F)(F)F)cc1)CSc1ccc(OCC(=O)O)c(Cl)c1	0.0467 µM	> 1 µM	> 1 µM
C=C(COc1ccc(C(F)(F)F)cc1)CSc1ccc(OCC(=O)O)c(C)c1		> 1 µM	> 1 µM
C=C(COc1ccc(OC(F)(F)F)cc1)CSc1ccc(OCC(=O)O)c(C)c1	0.0284 µM	> 1 µM	> 1 µM
C=C(COc1ccc(Cl)c(C(F)(F)F)c1)CSc1ccc(OCC(=O)O)c(C)c1	> 0.5 µM	> 1 µM	> 1 µM
C=C(COc1ccc(C(F)(F)F)cc1)CSc1ccc(OCC(=O)O)c(OC)c1	> 1 µM	> 1 µM	> 1 µM

Other lines, results leading:

EC50 [1]	EC50 [2]	EC50 [3]	SMILES
0.0086 µM			CCCC(CCC)(COc1ccc(C(F)(F)F)cc1)CSc1ccc(OCC(=O)O)c(C)c1
> 0.5 µM	> 1 µM	> 1 µM	C=C(CNc1ccc(C(F)(F)F)cc1)CSc1ccc(OCC(=O)O)c(C)c1
	> 1 µM	> 1 µM	C=C(COc1ccc(N(C)C)cc1)CSc1ccc(OCC(=O)O)c(C)c1
> 1 µM	> 1 µM	> 1 µM	C=C(COc1ccc(C(F)(F)F)cc1)CSc1ccc(OCC(=O)O)c(C(F)(F)F)c1
	> 1 µM	> 1 µM	C=C(COc1ccc(Cl)cc1Cl)CSc1ccc(OCC(=O)O)c(C)c1
0.0696 µM			Cc1cc(SCC(COc2ccc(C(F)(F)F)cc2)=C(F)F)ccc1OCC(=O)O
	> 1 µM	> 1 µM	C=C(CSc1ccc(C(F)(F)F)cc1)CSc1ccc(OCC(=O)O)c(C)c1
0.0655 µM	> 1 µM	> 1 µM	C=C(COc1ccc(Cl)cc1)CSc1ccc(OCC(=O)O)c(C)c1
	> 1 µM	> 1 µM	C=C(COc1ccc(C(F)(F)F)cc1)COc1ccc(OCC(=O)O)c(C)c1
> 0.5 µM	> 1 µM	> 1 µM	C=C(COc1ccc(C(F)(F)F)cc1)CSc1ccc(OCC(=O)O)cc1Cl
0.0354 µM			Cc1cc(SC/C(=C/C#N)COc2ccc(C(F)(F)F)cc2)ccc1OCC(=O)O

— ChEMBL document CHEMBL1152720, “Discovery and SAR of para-alkylthiophenoxyacetic acids as potent and selective PPARdelta agonists” (Bioorg Med Chem Lett, 2009)
